In the assay the target is T1, human IL-17AA (Homo sapiens, UniProt Q16552).
T1 construct: host or cells: HEK (human embryonic kidney) cells
T1 sequence (Q16552 24-155) 1: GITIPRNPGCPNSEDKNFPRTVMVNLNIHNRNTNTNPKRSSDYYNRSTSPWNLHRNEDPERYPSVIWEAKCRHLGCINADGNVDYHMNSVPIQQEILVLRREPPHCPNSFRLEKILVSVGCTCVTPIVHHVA
T1 sequence (Q16552 24-155) 2: T1 sequence (Q16552 24-155) 1
As to the kind of experiment: IL-8 release assay in human epithelial keratinocytes adult (HEKa). Format: cell-based. The note with it: 3 ng/ml human IL-17AA + 10 ng/ml human TNFalpha, 68-72 h, IL-8 by HTRF, read-out: Rel EC50 L-8 release assay. The protocol: Example: IL-8 release assay in human epithelial keratinocytes adult (HEKa) Keratinocytes were seeded at 3500 cells/well in 384-well ViewPlates (Perkin Elmer) in Epilife medium (Thermo Fisher) containing human keratinocyte growth supplement (HKGS) without hydrocortisone and incubated in a humid incubator at 37° C., 5% CO2, overnight. The following day growth medium was removed and 25 μl fresh Epilife 10 medium added. 75 nl test compound in 100% DMSO was added into each well reserved
for test compounds, by the use of acoustic pipetting. The remaining wells received an equal volume of DMSO only, as vehicle control, or terfenadine in DMSO, as a positive control for any cytotoxic compounds. Subsequently, another 25 μl Epilife medium was added to each well. Finally, wells containing test compounds and wells prepared to yield 15 maximum stimulation received 25 μl of 9 ng/ml recombinant, human embryonic kidney cell (HEK)-derived human IL-17AA+30 ng/ml human TNF-alpha, in Epilife medium. Wells prepared to define 100% inhibition of IL-17 effects received 25 μl of 30 ng/ml human TNF-alpha alone, in Epilife medium. Final concentrations were 3 ng/ml HEKhuman IL-17AA+10 ng/ml human TNFalpha (maximum stimulation) and 10 ng/ml 20 human TNFalpha alone (100% inhibition, Emax), respectively. Cells were incubated for 68-72 h in the incubator. IL-8 released from the cells was measured by the use of a commercial homogenous time-resolved fluorescence (HTRF) assay (CisBio). 2 μl cell culture supernatant was transferred to a 384-well Proxiplate. 5 μl HTRF reagent was added and the plates incubated sealed in the dark for 3-22 h at room temperature. Time resolved fluorescence was read at 665 vs 620 nm, with excitation at 320 nm, and IL-8 levels calculated as percent of controls. Reduction of the amount of secreted IL-8 indicates decreased IL-17 signaling. Concentration response curves were fitted by the use of a four-parameter logistic equation. Relative IC50 and Emax were reported from 5 curves showing acceptable fit (r2>0.9). Cytotoxicity was measured in the cell-containing
Compounds of the present invention were tested in the IL-8 release assay in human epithelial keratinocytes.

What is called EC50 is the concentration that produces a half-maximal response. Consider `Cc1n[nH]c(C)c1-c1ccc(NC(=O)[C@@H](NC(=O)C2(F)CC2)[C@@H]2CCc3ccc(-c4ccc(=O)n(C(C)C)c4)cc32)cc1` [Example 6, N-[(1S)-2-[4-(3,5-dimethyl-1H-pyrazol-4-yl)anilino]-1-[(1R)-6-(1-isopropyl-6-oxo-3-pyridyl)indan-1-yl]-2-oxo-ethyl]-1-fluoro-cyclopropanecarboxamide], for which the EC50 was 0.1 to 1 µM.

In the case of `Cn1cncc1-c1ccc(NC(=O)[C@H](Cc2cc(-c3ccnc(C(C)(O)C4CC4)c3)ccc2Cl)NC(=O)c2ccnn2C)cc1` (stereo partly drawn) [Example 141, N-[(1S)-1-[[2-chloro-5-[2-(1-cyclopropyl-1-hydroxy-ethyl)-4-pyridyl]phenyl]methyl]-2-[4-(3-methylimidazol-4-yl)anilino]-2-oxo-ethyl]-2-methyl-pyrazole-3-carboxamide], the EC50 is less than 0.1 µM.

Regarding `Cc1cnn(C)c1-c1ccc(NC(=O)[C@@H](NC(=O)C2(F)CC2)[C@@H]2CCCc3ccc(-c4ccnc(N5C[C@H]6C[C@@H]5CO6)c4)cc32)cc1` [Example 399, N-[(1S)-2-[4-(2,4-dimethylpyrazol-3-yl)anilino]-1-[(1R)-7-[2-[(1R,4R)-2-oxa-5-azabicyclo[2.2.1]heptan-5-yl]-4-pyridyl]tetralin-1-yl]-2-oxo-ethyl]-1-fluoro-cyclopropanecarboxamide], the EC50 is less than 0.1 µM.

As for `Cn1cncc1-c1ccc(NC(=O)C(Cc2cc(-c3ccnc(OCC(F)(F)F)c3)ccc2Cl)NC(=O)c2ccnn2C)cc1` (stereo not shown) [Example 152, N-[1-[[2-chloro-5-[2-(2,2,2-trifluoroethoxy)-4-pyridyl]phenyl]methyl]-2-[4-(3-methylimidazol-4-yl)anilino]-2-oxo-ethyl]-2-methyl-pyrazole-3-carboxamide], the EC50 is 0.1 to 1 µM.

As to `Cc1n[nH]c(C)c1-c1ccc(NC(=O)[C@H](Cc2cc(-c3cccc(C(C)(C)N)c3)ccc2Cl)NC(=O)c2ccnn2C)cc1` [Example 59, N-[(1S)-1-[[5-[3-(1-amino-1-methyl-ethyl)phenyl]-2-chloro-phenyl]methyl]-2-[4-(3,5-dimethyl-1H-pyrazol-4-yl)anilino]-2-oxo-ethyl]-2-methyl-pyrazole-3-carboxamide], the EC50 is less than 0.1 µM.

With `Cc1nocc1C(=O)N[C@@H](Cc1cc(-c2ccc(=O)n(C(C)C)c2)ccc1Cl)C(=O)Nc1ccc(-c2cncn2C)c(O)c1` [Example 132, N-[(1S)-1-[[2-chloro-5-(1-isopropyl-6-oxo-3-pyridyl)phenyl]methyl]-2-[3-hydroxy-4-(3-methylimidazol-4-yl)anilino]-2-oxo-ethyl]-3-methyl-isoxazole-4-carboxamide], the EC50 is less than 0.1 µM.

For `Cc1nccn1-c1ccc(NC(=O)[C@@H](NC(=O)C2(F)CC2)[C@@H]2CCCc3ccc(-c4ccnc(N5C[C@H]6C[C@@H]5CO6)c4)cc32)cc1` [Example 401, 1-fluoro-N-[(1S)-2-[4-(2-methylimidazol-1-yl)anilino]-1-[(1R)-7-[2-[(1R,4R)-2-oxa-5-azabicyclo[2.2.1]heptan-5-yl]-4-pyridyl]tetralin-1-yl]-2-oxo-ethyl]cyclopropanecarboxamide], the EC50 is 0.1 to 1 µM.

As for `Cn1cnnc1-c1ccc(NC(=O)C(Cc2cc(-c3cccc(C(C)(C)O)c3)ccc2Cl)NC(=O)c2ccnn2C)cc1` (stereo not shown) [Example 109, N-[1-[[2-chloro-5-[3-(1-hydroxy-1-methyl-ethyl)phenyl]phenyl]methyl]-2-[4-(4-methyl-1,2,4-triazol-3-yl)anilino]-2-oxo-ethyl]-2-methyl-pyrazole-3-carboxamide], the EC50 is 0.1 to 1 µM.

With `Cc1n[nH]c(C)c1-c1ccc(NC(=O)[C@H](Cc2cc(-c3cccc(C(C)(C)O)c3)ccc2Cl)NC(=O)c2ccnn2C)cc1` [Example 58, N-[(1S)-1-[[2-chloro-5-[3-(1-hydroxy-1-methyl-ethyl)phenyl]phenyl]methyl]-2-[4-(3,5-dimethyl-1H-pyrazol-4-yl)anilino]-2-oxo-ethyl]-2-methyl-pyrazole-3-carboxamide], the EC50 was less than 0.1 µM.

For the molecule `Cc1n[nH]c(C)c1-c1ccc(NC(=O)[C@@H](NC(=O)c2ccnn2C)[C@@H]2CCCc3ccc(-c4cnn(C(C)(C)C)c4)cc32)cc1` [Example 34, N-[(1S)-1-[(1R)-7-(1-tert-butylpyrazol-4-yl)tetralin-1-yl]-2-[4-(3,5-dimethyl-1H-pyrazol-4-yl)anilino]-2-oxo-ethyl]-2-methyl-pyrazole-3-carboxamide], the EC50 is less than 0.1 µM.

On to `Cc1nocc1C(=O)N[C@@H](Cc1cc(-c2ccnc(C(=O)C3CC3)c2)ccc1Cl)C(=O)Nc1ccc(-c2nncn2C)cc1` [Example 85, N-[(1S)-1-[[2-chloro-5-[2-(cyclopropanecarbonyl)-4-pyridyl]phenyl]methyl]-2-[4-(4-methyl-1,2,4-triazol-3-yl)anilino]-2-oxo-ethyl]-3-methyl-isoxazole-4-carboxamide], for which the EC50 was greater than 1 µM.

As to `Cc1ncn(C)c1-c1ccc(NC(=O)[C@H](Cc2cc(-c3cnn(C(C)(C)C)c3)ccc2Cl)NC(=O)c2ccnn2C)cc1` [Example 182, N-[(1S)-1-[[5-(1-tert-butylpyrazol-4-yl)-2-chloro-phenyl]methyl]-2-[4-(3,5-dimethylimidazol-4-yl)anilino]-2-oxo-ethyl]-2-methyl-pyrazole-3-carboxamide], the EC50 is less than 0.1 µM.

With `Cc1nocc1C(=O)N[C@@H](Cc1cc(-c2ccnc(C(O)C(C)C)c2)ccc1Cl)C(=O)Nc1ccc(-c2nncn2C)cc1` (stereo partly drawn) [Example 82, N-[(1S)-1-[[2-chloro-5-[2-(1-hydroxy-2-methyl-propyl)-4-pyridyl]phenyl]methyl]-2-[4-(4-methyl-1,2,4-triazol-3-yl)anilino]-2-oxo-ethyl]-3-methyl-isoxazole-4-carboxamide], the concentration for a half-maximal effect (EC50) is 0.1 to 1 µM.

In the case of `CC(C)n1cc(-c2ccc(Cl)c(C[C@H](NC(=O)C3CCC3)C(=O)Nc3ccc(-c4nncn4C)cc3)c2)ccc1=O` [Example 293, N-[(1S)-1-[[2-chloro-5-(1-isopropyl-6-oxo-3-pyridyl)phenyl]methyl]-2-[4-(4-methyl-1,2,4-triazol-3-yl)anilino]-2-oxo-ethyl]cyclobutanecarboxamide], the EC50 is greater than 1 µM.

In the case of `Cc1n[nH]cc1-c1ccc(NC(=O)C(NC(=O)c2ccnn2C)C(c2ccccc2)c2cccc(-c3ccc(=O)n(C(C)C)c3)c2)cc1` (single isomer, unassigned; diastereomer 3) [Example 237, N-[1-[[3-(1-isopropyl-6-oxo-3-pyridyl)phenyl]-phenyl-methyl]-2-[4-(3-methyl-1H-pyrazol-4-yl)anilino]-2-oxo-ethyl]-2-methyl-pyrazole-3-carboxamide (Diastereomer 3)], the EC50 is greater than 1 µM.

As for `CC(C)n1cc(-c2ccc3c(c2)[C@@H]([C@@H](NC(=O)OC(C)(C)C)C(=O)Nc2ccc(-c4cncn4C)cc2)CCC3)ccc1=O` [Example 45, tert-butyl N-[(1R)-1-[(1S)-7-(1-isopropyl-6-oxo-3-pyridyl)tetralin-1-yl]-2-[4-(3-methylimidazol-4-yl)anilino]-2-oxo-ethyl]carbamate], the EC50 is 0.1 to 1 µM.

Take `Cn1cncc1-c1ccc(NC(=O)C(Cc2cc(-c3ccnc(N4CCNCC4)c3)ccc2Cl)NC(=O)c2ccnn2C)cc1` (stereo not shown) [Example 197, N-[1-[[2-chloro-5-(2-piperazin-1-yl-4-pyridyl)phenyl]methyl]-2-[4-(3-methylimidazol-4-yl)anilino]-2-oxo-ethyl]-2-methyl-pyrazole-3-carboxamide]: the concentration for a half-maximal effect (EC50) lay in the range of 0.1 to 1 µM.

Turning to `CC(C)n1cc(-c2ccc(Cl)c(CC(NC(=O)c3conc3C(F)(F)F)C(=O)Nc3ccc(-c4nncn4C)cc3)c2)ccc1=O` (stereo not shown) [Example 95, N-[1-[[2-chloro-5-(1-isopropyl-6-oxo-3-pyridyl)phenyl]methyl]-2-[4-(4-methyl-1,2,4-triazol-3-yl)anilino]-2-oxo-ethyl]-3-(trifluoromethyl)isoxazole-4-carboxamide], the concentration giving a half-maximal response (EC50) was greater than 1 µM.

On to `Cc1n[nH]cc1-c1ccc(NC(=O)C(NC(=O)OC2CC2)C(c2ccccc2)c2cccc(-c3ccc(=O)n(C(C)C)c3)c2)cc1` (single isomer, unassigned; diastereomer 3) [Example 244, cyclopropyl N-[1-[[3-(1-isopropyl-6-oxo-3-pyridyl)phenyl]-phenyl-methyl]-2-[4-(3-methyl-1H-pyrazol-4-yl)anilino]-2-oxo-ethyl]carbamate (Diastereomer 3)], for which the EC50 is greater than 1 µM.

Source of the values: patent US20220162191A1, “SMALL MOLECULE MODULATORS OF IL-17” (LEO PHARMA A/S, priority 2019, published 2022).
